From US4719223A, “Imidazolethiol dopamine-beta-hydroxylase inhibitors” (SmithKline Beckman Corporation, priority 1985, dated 1988)
Where two headings read alike, the source gives them in different places.

Columns and labels:
[1] = target: T1, dopamine-β-hydroxylase (DBH) (Bos taurus, UniProt P15101); assay: in vitro DBH inhibition (conversion of tyramine to octopamine, absorbance at 330 nm); type: biochemical; conditions: for DBH inhibiting activity: phenolic hydroxy group replaced by isostere
T1 sequence (P15101 1-610): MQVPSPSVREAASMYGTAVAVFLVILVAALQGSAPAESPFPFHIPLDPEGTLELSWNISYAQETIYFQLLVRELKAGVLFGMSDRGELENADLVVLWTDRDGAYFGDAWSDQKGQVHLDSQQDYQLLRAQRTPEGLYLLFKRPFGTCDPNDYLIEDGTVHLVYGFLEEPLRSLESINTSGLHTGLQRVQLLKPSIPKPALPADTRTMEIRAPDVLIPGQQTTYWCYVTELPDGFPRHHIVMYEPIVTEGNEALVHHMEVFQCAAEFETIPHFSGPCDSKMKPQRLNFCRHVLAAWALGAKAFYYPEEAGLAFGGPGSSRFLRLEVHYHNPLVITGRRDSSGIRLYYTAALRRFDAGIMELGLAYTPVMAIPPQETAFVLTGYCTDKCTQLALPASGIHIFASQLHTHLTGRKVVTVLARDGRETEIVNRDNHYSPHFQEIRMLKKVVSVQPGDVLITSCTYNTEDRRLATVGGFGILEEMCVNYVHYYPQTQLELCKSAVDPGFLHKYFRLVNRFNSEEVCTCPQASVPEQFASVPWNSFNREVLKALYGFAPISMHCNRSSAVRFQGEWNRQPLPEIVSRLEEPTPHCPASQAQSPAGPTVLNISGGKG
Method: Because the compounds of Formula I inhibit DBH activity, they have therapeutic value as diuretic, natriuretic, cardiotonic, antihypertensive and vasodilator agents, as well as antiulcerogenic and anti-Parkinsonian agents. Listed in Table I are the compounds of the invention that were tested for in vitro DBH inhibition by a standard procedure for assaying conversion of tyramine to octopamine in the presence of DBH. J. J. Pisano, et al., Biochim. Biophys. Acta; 43, […] (1960). Octopamine was assayed following sodium periodate oxidation to p-hydroxybenzaldehyde by measuring spectrophotometric absorbance at 330 nm. In Table I, inhibition is given in molar concentration of compound at which DBH activity was halved (IC50). Melting points (mp) are given in °C.
This testing was performed using compounds prepared by substituting various phenolic isosteres for the phenolic hydroxy group of another DBH inhibitor, 1-(3',5'-difluoro-4'-hydroxybenzyl)imidazole-2-thiol (U.S. patent application Ser. No. 590,665, filed Mar. 19, 1984).

DBH [2] = conditions: cited from earlier work; for DBH inhibition: literature reports; for mode of DBH inhibition: apparent, phenethylamine analogues
[3] = test system: peripheral dopamine (DA) and norepinephrine (NE) levels; assay: in vivo effect on peripheral dopamine (DA) and norepinephrine (NE) levels; set-up: species or system spontaneously hypertensive rats; conditions: 50 mg/kg orally, twice, about 18 h apart, sacrificed about 2 h after second dose; for DA/NE Ratio / DA: p < 0.001; for NE / DA: μg per gram of tissue
Method: One of the compounds of the invention was tested for its effect in vivo on peripheral dopamine (DA) and norepinephrine (NE) levels substantially by the procedure of DaPrada and Zurcher, Life Sciences, 19, 1161, (1976). Groups of five spontaneously hypertensive rats were dosed orally, twice, the second dose approximately 18 hours after the first, and were sacrificed about 2 hours after the second dose.

[4] = mean arterial blood pressure in spontaneously hypertensive rats; type: in vivo; conditions: 50 mg/kg intraperitoneally; 15 min
Method: Further, spontaneously hypertensive rats were dosed with a suspension or solution of 1-(4'-amino-3',5'-difluorobenzyl)imidazole-2-thiol at a dose of 50 mg/kg intraperitoneally, and mean arterial blood pressure was monitored for 260 minutes using indwelling cannulae positioned in the tail arteries. Approximate forty percent reductions in blood pressure were observed fifteen minutes following administration of this compound. At 260 minutes after administration of this compound, blood pressure remained reduced by approximately ten percent when compared to vehicle-treated controls.

[5] = Teresawa et al. 1971; cited from earlier work
[6] = Ehrreich et al. 1976; cited from earlier work
DBH [7] = conditions: Friedman et al. 1978; significance uncertain; cited from earlier work
[8] = in vitro, tyramine to octopamine, read-out: IC50 (molar concentration of compound at which DBH activity was halved)

NS(=O)(=O)Nc1c(F)cc(Cn2ccnc2S)cc1F [--NHSO2 NH2]
DBH inhibiting activity ([1]; in vitro): devoid of DBH inhibiting activity

O=C(O)c1ccc(CCCCCl)cn1 [5-(4-chlorobutyl)picolinic acid]
DBH inhibition (DBH [2]): inhibit DBH

phenylpicolinic acid
DBH inhibitory activity relative to fusaric acid (DBH [2]; Runti et al. 1980): twice the inhibitory activity of fusaric acid

O=C(O)c1ccc(CCC(Br)CBr)cn1 (stereo not shown) [5-(3,4-dibromobutyl)picolinic acid]
DBH inhibition (DBH [2]): DBH inhibitors

O=C(Nc1c(F)cc(Cn2ccnc2S)cc1F)C(F)(F)F [--NHCOCF3]
DBH inhibiting activity ([1]; in vitro): devoid of DBH inhibiting activity

NNCc1ccccc1 [benzylhydrazine]
mode of DBH inhibition (DBH [2]): competitive inhibitors

CN(C)C(=S)SCc1ccc(C(=O)O)nc1 [5-(dimethyldithiocarbamoyl)methylpicolinic acid]
DBH inhibition (DBH [2]): DBH inhibitors

Nc1c(Cl)cc(Cn2ccnc2S)cc1Cl [1-(4'-amino-3',5'-dichlorobenzyl)imidazole-2-thiol]
IC50 [1, 8]: 3100 nM

Nc1c(F)cc(Cn2ccnc2S)cc1F [1-(4'-amino-3',5'-difluorobenzyl)imidazole-2-thiol]
IC50 [1, 8]: 1200 nM | DA/NE Ratio [3]: 0.151 | NE [3]: 5.53 µg/g | DA [3]: 0.821 µg/g | reduction in blood pressure, fifteen minutes after administration [4]: forty

CCCCc1ccc(C(=O)O)nc1 [Fusaric acid]
DA/NE Ratio [3]: 0.0937 | NE [3]: 5.63 µg/g | DA [3]: 0.529 µg/g | hepatotoxicity [5]: hepatotoxic

CCCCc1ccc(C(N)=O)nc1 [Bupicomide, 5-(n-butyl)picolinamine]
DBH inhibition (DBH [2]): DBH inhibitor | antihypertensive activity [6]: antihypertensive activity

NOCc1ccccc1 [Benzyloxyamine, benzyloxyamine]
mode of DBH inhibition (DBH [2]): competitive inhibitors

C[C@](N)(Cc1ccc(O)c(O)c1)C(=O)O [alpha-methyl-DOPA]
DBH levels in treated patients (DBH [7]): lowered DBH levels

O=CNc1c(F)cc(Cn2ccnc2S)cc1F [--NHCHO]
DBH inhibiting activity ([1]; in vitro): devoid of DBH inhibiting activity

CS(=O)(=O)Cc1c(F)cc(Cn2ccnc2S)cc1F [--CH2 SO2 CH3]
DBH inhibiting activity ([1]; in vitro): devoid of DBH inhibiting activity

COC(=O)[C@H]1[C@H]2C[C@@H]3c4[nH]c5cc(OC)ccc5c4CCN3C[C@H]2C[C@@H](OC(=O)c2cc(OC)c(OC)c(OC)c2)[C@@H]1OC [reserpine]
DBH levels in treated patients (DBH [7]): lowered DBH levels

Oc1c(F)cc(Cn2cc[nH]c2=S)cc1F [1-(3',5'-difluoro-4'-hydroxybenzyl)imidazole-2-thiol]
IC50 ([1]; comparison compound of U.S. patent application Ser. No. 590,665, read-out: IC50 of comparison DBH inhibitor): 80 nM
